Molecular target: T1, LXR beta (Homo sapiens, UniProt P55055)
T1 construct: 5 μL of 4×LXR beta-LBD was added to each well (final concentration 5 nM); purchased Thermofisher PV4658
T1 sequence (P55055 222-460 limits assumed): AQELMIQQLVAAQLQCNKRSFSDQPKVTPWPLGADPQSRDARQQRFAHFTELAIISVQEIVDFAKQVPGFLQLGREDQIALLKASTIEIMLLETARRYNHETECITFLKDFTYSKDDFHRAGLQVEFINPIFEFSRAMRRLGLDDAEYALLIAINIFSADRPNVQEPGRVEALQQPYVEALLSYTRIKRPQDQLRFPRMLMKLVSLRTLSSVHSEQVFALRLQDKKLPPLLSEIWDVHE
Assay: LXR beta agonist assay (Lanthascreen TR-FRET)
Type: biochemical
Conditions: LXR beta-LBD 5 nM, read-out: LXR-β EC50
Method: EC50 values of compounds against LXR beta were determined at Integral BioSciences (India) using Lanthascreen TR-FRET (Thermofisher, Cat #PV4658). Assay was performed in a 20 μL final volume in a Black 384-well plate (Corning, Cat #4511). Dose response curve for the compounds were prepared in duplicates with starting concentration at 30 μM and a three-fold titration was performed. The reaction buffer consisted of TR-FRET Coregulator Buffer G. To the compound dilution, 5 μL of 4×LXR beta-LBD was added to each well (final concentration 5 nM). An equal volume (5 μL) containing 4×Fl-D22/Tb-anti GST antibody (final concentration 100 nM/10 nM) was added to initiate the enzyme reaction and the reaction was incubated for 60 min at 22° C. after which the plates were read using BioTek Plate reader for TR-FRET every hour up to 4 hours.
Analysis was done using the standard curve by non-linear regression, variable slope inhibitor curve fits (Graph-Pad Prism) and EC50's of compounds were determined wherever possible.

## COc1cccc(C2(C(=O)N3CCC(N4CC(Nc5ccc(C(=O)N(C)C)c(Cl)c5)C4)CC3)CCCC2)c1 [Compound 1.67, 2-chloro-4-(1-(1-(1-(3-methoxyphenyl)cyclopentanecarbonyl)piperidin-4-yl)azetidin-3-ylamino)-N,N-dimethylbenzamide]
  EC50: 0.995 µM

## CN(C)C(=O)c1ccc(-c2nnc(C3=CCN(C(=O)C(O)(c4ccccc4)C(F)(F)F)CC3)s2)cc1Cl (stereo not shown) [Compound 1.68, 2-chloro-N,N-dimethyl-4-(5-(1-(3,3,3-trifluoro-2-hydroxy-2-phenylpropanoyl)-1,2,3,6-tetrahydropyridin-4-yl)-1,3,4-thiadiazol-2-yl)benzamide]
  EC50: 4.58 µM

## CN(C)C(=O)c1ccc(NC2CN(C3CCN(C(=O)C45CC(C4)C5)CC3)C2)cc1Cl [Compound 1.69, 4-(1-(1-(bicyclo[1.1.1]pentane-1-carbonyl)piperidin-4-yl)azetidin-3-ylamino)-2-chloro-N,N-dimethylbenzamide]
  EC50: 3.79 µM

## CN(C)C(=O)c1ccc(-c2nnc(N3CCN(S(=O)(=O)c4ccccc4Cl)CC3)s2)cc1F [Compound 1.70, 4-(5-(4-(2-chlorophenylsulfonyl)piperazin-1-yl)-1,3,4-thiadiazol-2-yl)-2-fluoro-N,N-dimethylbenzamide]
  EC50: 9.77 µM

## CN(C)C(=O)c1ccc(C2CCN(C3CC4(C3)CN(C(=O)C(O)(c3ccccc3)C(F)(F)F)C4)CC2)cc1Cl (stereo not shown) [Compound 1.80, 2-chloro-N,N-dimethyl-4-(1-(2-(3,3,3-trifluoro-2-hydroxy-2-phenylpropanoyl)-2-azaspiro[3.3]heptan-6-yl)piperidin-4-yl)benzamide]
  EC50: 4.33 µM

## CN(C)C(=O)c1ccc(NC2CN(C3CC4(C3)CN(C(=O)[C@](O)(c3ccccc3)C(F)(F)F)C4)C2)cc1Cl [Compound 1.81, 2-chloro-N,N-dimethyl-4-(1-(2-((R)-3,3,3-trifluoro-2-hydroxy-2-phenylpropanoyl)-2-azaspiro[3.3]heptan-6-yl)azetidin-3-ylamino)benzamide]
  EC50: 4.22 µM

## CC1CN(S(=O)(=O)c2ccccc2Cl)CCN1c1nnc(-c2ccc(C(=O)N(C)C)c(F)c2)s1 (stereo not shown) [Compound 1.82, 4-(5-(4-(2-chlorophenylsulfonyl)-2-methylpiperazin-1-yl)-1,3,4-thiadiazol-2-yl)-2-fluoro-N,N-dimethylbenzamide]
  EC50: 9.02 µM

## CC1CN(c2nnc(-c3ccc(C(=O)N(C)C)c(Cl)c3)s2)CCN1S(=O)(=O)c1ccccc1Cl (stereo not shown) [Compound 1.83, 2-chloro-4-(5-(4-(2-chlorophenylsulfonyl)-3-methylpiperazin-1-yl)-1,3,4-thiadiazol-2-yl)-N,N-dimethylbenzamide]
  EC50: 8.46 µM

## CN(C)C(=O)c1ccc(NC2CN(C3CCN(C(=O)C(O)(c4ccccc4)C(F)(F)F)CC3)C2)cc1F (stereo not shown) [Compound 1.85, 2-fluoro-N,N-dimethyl-4-((1-(1-(3,3,3-trifluoro-2-hydroxy-2-phenylpropanoyl)piperidin-4-yl)azetidin-3-yl)amino)benzamide]
  EC50: > 30 µM

## O=C(c1ccc(NC2CN(C3CCN(C(=O)C(O)(c4ccccc4)C(F)(F)F)CC3)C2)cc1Cl)N1CCCC1 (stereo not shown) [Compound 1.88, 1-(4-(3-(3-chloro-4-(pyrrolidine-1-carbonyl)phenylamino)azetidin-1-yl)piperidin-1-yl)-3,3,3-trifluoro-2-hydroxy-2-phenylpropan-1-one]
  EC50: > 30 µM

## O=C(c1ccc(NC2CN(C3CCN(C(=O)C(O)(c4ccccc4)C(F)(F)F)CC3)C2)cc1Cl)N1CCCCC1 (stereo not shown) [Compound 1.89, 1-(4-(3-(3-chloro-4-(piperidine-1-carbonyl)phenylamino)azetidin-1-yl)piperidin-1-yl)-3,3,3-trifluoro-2-hydroxy-2-phenylpropan-1-one]
  EC50: > 30 µM

## CC1CN(C(=O)c2ccc(NC3CN(C4CCN(C(=O)C(O)(c5ccccc5)C(F)(F)F)CC4)C3)cc2Cl)C1 (stereo not shown) [Compound 1.94, 1-(4-(3-((3-chloro-4-(3-methylazetidine-1-carbonyl)phenyl)amino)azetidin-1-yl)piperidin-1-yl)-3,3,3-trifluoro-2-hydroxy-2-phenylpropan-1-one]
  EC50: 6.79 µM

## O=C(NCC(F)F)c1ccc(NC2CN(C3CCN(C(=O)C(O)(c4ccccc4)C(F)(F)F)CC3)C2)cc1Cl (stereo not shown) [Compound 1.98, 2-chloro-N-(2,2-difluoroethyl)-4-((1-(1-(3,3,3-trifluoro-2-hydroxy-2-phenylpropanoyl)piperidin-4-yl)azetidin-3-yl)amino)benzamide]
  EC50: 9.8 µM

## CN(C)C(=O)c1ccc(NC2CN(C3CCN(C(=O)C(O)(C4CCCCC4)C(F)(F)F)CC3)C2)cc1Cl (stereo not shown) [Compound 1.101, 2-chloro-4-((1-(1-(2-cyclohexyl-3,3,3-trifluoro-2-hydroxypropanoyl)piperidin-4-yl)azetidin-3-yl)amino)-N,N-dimethylbenzamide]
  EC50: 4.85 µM

## O=C(c1ccc(NC2CN(C3CCN(C(=O)C(O)(c4ccccc4)C(F)(F)F)CC3)C2)cc1Cl)N1CCN(C(=O)C2CCC2)CC1 (stereo not shown) [Compound 1.102, 1-(4-(3-((3-chloro-4-(4-(cyclobutanecarbonyl)piperazine-1-carbonyl)phenyl)amino)azetidin-1-yl)piperidin-1-yl)-3,3,3-trifluoro-2-hydroxy-2-phenylpropan-1-one]
  EC50: 3.18 µM

## CC(=O)N1CCN(C(=O)c2ccc(NC3CN(C4CCN(C(=O)C(O)(c5ccccc5)C(F)(F)F)CC4)C3)cc2Cl)CC1 (stereo not shown) [Compound 1.103, 1-(4-(3-((4-(4-acetylpiperazine-1-carbonyl)-3-chlorophenyl)amino)azetidin-1-yl)piperidin-1-yl)-3,3,3-trifluoro-2-hydroxy-2-phenylpropan-1-one]
  EC50: > 30 µM

## O=C(c1ccc(NC2CN(C3CCN(C(=O)C(O)(c4ccccc4)C(F)(F)F)CC3)C2)cc1Cl)N1CC(F)(F)C1 (stereo not shown) [Compound 1.110, 1-(4-(3-(3-chloro-4-(3,3-difluoroazetidine-1-carbonyl)phenylamino)azetidin-1-yl)piperidin-1-yl)-3,3,3-trifluoro-2-hydroxy-2-phenylpropan-1-one]
  EC50: 5.71 µM

## COCCCN(C)C(=O)c1ccc(N2CCN(C3CC4(C3)CN(C(=O)C(O)(c3ccccc3)C(F)(F)F)C4)CC2)cc1Cl (stereo not shown) [Compound 1.119, 2-chloro-N-(3-methoxypropyl)-N-methyl-4-(4-(2-(3,3,3-trifluoro-2-hydroxy-2-phenylpropanoyl)-2-azaspiro[3.3]heptan-6-yl)piperazin-1-yl)benzamide]
  EC50: 2.85 µM

## CN(C)C(=O)c1c(Cl)cc(NC2CN(C3CCN(C(=O)[C@](O)(c4ccccc4)C(F)(F)F)CC3)C2)cc1Cl [Compound 1.122, (R)-2,6-dichloro-N,N-dimethyl-4-(1-(1-(3,3,3-trifluoro-2-hydroxy-2-phenylpropanoyl)piperidin-4-yl)azetidin-3-ylamino)benzamide]
  EC50: 4.26 µM

## CN(C)C(=O)c1c(Cl)cc(NC2CN(C3CCN(C(=O)[C@@](O)(c4ccccc4)C(F)(F)F)CC3)C2)cc1Cl [Compound 1.123, (S)-2,6-dichloro-N,N-dimethyl-4-(1-(1-(3,3,3-trifluoro-2-hydroxy-2-phenylpropanoyl)piperidin-4-yl)azetidin-3-ylamino)benzamide]
  EC50: > 27 µM

## COCCCN(C)C(=O)c1ccc(NC2CN(C3CCN(C(=O)[C@](O)(c4ccccc4)C(F)(F)F)CC3)C2)cc1Cl [Compound 1.124, (R)-2-chloro-N-(3-methoxypropyl)-N-methyl-4-(1-(1-(3,3,3-trifluoro-2-hydroxy-2-phenylpropanoyl)piperidin-4-yl)azetidin-3-ylamino)benzamide]
  EC50: 1.57 µM

## CN(CCCC(F)(F)F)C(=O)c1ccc(NC2CN(C3CCN(C(=O)[C@](O)(c4ccccc4)C(F)(F)F)CC3)C2)cc1Cl [Compound 1.125, (R)-2-chloro-N-methyl-4-(1-(1-(3,3,3-trifluoro-2-hydroxy-2-phenylpropanoyl)piperidin-4-yl)azetidin-3-ylamino)-N-(4,4,4-trifluorobutyl)benzamide]
  EC50: 3.98 µM

## CN(C)C(=O)c1c(F)cc(N2CCN(C3CC4(C3)CN(C(=O)C(O)(c3ccccc3)C(F)(F)F)C4)CC2)cc1F (stereo not shown) [Compound 1.126, 2,6-difluoro-N,N-dimethyl-4-(4-(2-(3,3,3-trifluoro-2-hydroxy-2-phenylpropanoyl)-2-azaspiro[3.3]heptan-6-yl)piperazin-1-yl)benzamide]
  EC50: 1.58 µM

## CN(C)C(=O)c1ccc(C2=CCN(C3CC4(C3)CN(C(=O)C(O)(c3ccccc3)C(F)(F)F)C4)CC2)cc1Cl (stereo not shown) [Compound 1.127, 2-chloro-N,N-dimethyl-4-(1-(2-(3,3,3-trifluoro-2-hydroxy-2-phenylpropanoyl)-2-azaspiro[3.3]heptan-6-yl)-1,2,3,6-tetrahydropyridin-4-yl)benzamide]
  EC50: 3.95 µM

## CN(C)C(=O)c1cc([N+](=O)[O-])c(NC2CN(C3CCN(C(=O)[C@](O)(c4ccccc4)C(F)(F)F)CC3)C2)cc1Cl [Compound 1.129, (R)-2-chloro-N,N-dimethyl-5-nitro-4-(1-(1-(3,3,3-trifluoro-2-hydroxy-2-phenylpropanoyl)piperidin-4-yl)azetidin-3-ylamino)benzamide]
  EC50: 3.47 µM
